How the values were obtained:
[1] = system: non-alcoholic steatohepatitis (NASH) in MCD mice; experiment: Serum ALT in MCD mice (NASH model), Example 6; assay type: in vivo, C57BL/6J mice; settings: oral 4 weeks, Antcin K 20 mg/kg, Antcin C 20 and 40 mg/kg, AK-GLU 26.6 mg/kg, better than obeticholic acid 10 mg/kg and DEA 20 mg/kg, FIG. 8
Procedure: (§1) The MCD mouse model and drug administration method were the same as in Example 4. After the final treatment, the mice were sacrificed, and the liver tissue samples were fixed overnight in 4% paraformaldehyde, embedded in paraffin, and sectioned. The sections were stained with hematoxylin and eosin (H&E) according to the following procedure: immerse the sections in the following solutions sequentially: xylene (I) for 15 minutes, xylene (II) for 15 minutes, 50% xylene-absolute ethanol for 2 minutes, absolute ethanol (I) for 5 minutes, absolute ethanol (II) for 5 minutes, 80% ethanol for 5 minutes, distilled water for 5 minutes, hematoxylin staining solution for 5 minutes, rinse with running water for 5 minutes, 1% hydrochloric acid ethanol for 30 seconds, rinse with water for 30 seconds, wash with distilled water for 5 seconds, 0.5% eosin staining solution for 2 minutes, rinse with distilled water for 30 seconds, 80% ethanol for 30 seconds, 95% ethanol (I) for 1 minute, 95% ethanol (II) for 1 minute, absolute ethanol (I) for 3 minutes, absolute ethanol (II) for 3 minutes, xylene (I) for 3 minutes, xylene (II) for 3 minutes, and mount with neutral resin.
(§2) The treated groups were compared with untreated MCD mice (“MCD”) and normal mice (“Nor”). The drug administration doses were as follows: positive control obeticholic acid (OCA): 10 mg/kg; Antcin K (AK): 20 mg/kg; low-dose Antcin C (AC-L): 20 mg/kg; high-dose Antcin C (AC-H): 40 mg/kg; DEA: 20 mg/kg; AK-GLU: 26.6 mg/kg.
After the final treatment, the mice were fasted overnight, sacrificed, and blood was collected from the eye vein. The whole blood was allowed to stand for 2 hours, centrifuged at 6000 rpm for 10 minutes, and the serum was obtained.

[2] = system: non-alcoholic steatohepatitis (NASH) in MCD mice; experiment: Pathological (H&E) staining of liver sections from MCD mice, Example 6; assay type: in vivo, C57BL/6J mice; settings: oral 4 weeks, Antcin K 20 mg/kg, Antcin C 20 and 40 mg/kg, AK-GLU 26.6 mg/kg, better than obeticholic acid and DEA, FIG. 9
Procedure: as §1, §2

FGF21 [3] = experiment: FGF21 protein expression in the liver of MCD mice (Western blot); assay type: in vivo, C57BL/6J mice; settings: oral 4 weeks, Antcin K 20 mg/kg, Antcin C 20 and 40 mg/kg, compared to DEA 20 mg/kg, FIG. 7
Procedure: The modeling and procedures for MCD mice are as described in Example 4. Comparisons were made between the treated groups and untreated MCD mice (“MCD”) and normal mice (“Normal”). The dosing for each treatment group was as follows: positive drug obeticholic acid (“OCA”): 10 mg/kg; Antcin K (“AK”): 20 mg/kg; low-dose Antcin C (“AC-L”): 20 mg/kg; high-dose Antcin C (“AC-H”): 40 mg/kg; DEA: 20 mg/kg.
Liver tissue (15-20 mg) was homogenized in RIPA lysis buffer on ice, and then centrifuged at 13,000 rpm for 30 minutes at 4° C. The middle layer liquid was transferred to a new centrifuge tube and the protein concentration was measured using BCA method. For each sample, 20 μg of protein was separated by SDS-PAGE and then transferred to a PDVF membrane using Bio-Rad's standard wet transfer system at 200 mA for 60 minutes. Subsequently, the membrane was cut according to protein molecular weight and blocked with 0.5% BSA at room temperature for 60 minutes. The primary antibody was incubated at 4° C. for 14 hours, followed by washing with TBST at room temperature 3 times for 5 minutes each. The secondary antibody was incubated at room temperature for 1 hour, followed by washing with TBST at room temperature 3 times for 10 minutes each. ECL reagent was used for detection.

FGF21 [4] = experiment: Serum FGF21 protein in MCD mice (ELISA); assay type: in vivo, C57BL/6J mice; settings: oral 4 weeks, Antcin K 20 mg/kg, Antcin C 20 and 40 mg/kg, AK-GLU 26.6 mg/kg, compared to DEA, FIG. 10
Procedure: The modeling and treatment of MCD mice were conducted as described in Example 4. The treated groups were compared with untreated MCD mice (“MCD”) and normal mice (“Nor”). The dosages for each treatment group were as follows: positive control obeticholic acid (“OCA”): 10 mg/kg; Antcin K (“AK”): 20 mg/kg; low-dose Antcin C (“AC-L”): 20 mg/kg; high-dose Antcin C (“AC-H”): 40 mg/kg; DEA: 20 mg/kg; AK-GLU: 26.6 mg/kg.
The serum sampling method from mice was the same as in Example 6. The FGF21 levels were tested using an ELISA kit (Beyotime), with the following procedure: The microplate was equilibrated at room temperature for 20 minutes. Then, 50 μL of serum samples or different concentrations of standards were added to each well. Next, 100 μL of HRP-conjugated detection antibody was added, and the plate was covered with a sealing film and incubated at 37° C. for 60 minutes. The liquid was discarded, and the plate was dried with absorbent paper. Each well was then washed with 350 μL of washing buffer, left for 1 minute, and the liquid was discarded and dried with absorbent paper. This washing step was repeated 5 times. Then, 50 μL of Substrate A and 50 μL of Substrate B were added to each well and incubated at 37° C. in the dark for 15 minutes. After that, 50 μL of stop solution was added to each well, and the absorbance at 450 nm was measured within 15 minutes. A standard curve was plotted with the absorbance of the standards on the vertical axis and the standard concentrations on the horizontal axis. The serum sample absorbance values were used to determine the FGF21 protein concentrations based on this standard curve.

[5] = system: non-alcoholic steatohepatitis; settings: reported; cited from earlier work
RDH10 = biological target: T1, RDH10 (Mus musculus, UniProt Q8VCH7); experiment: Protein fishing (pull-down) with molecular probe and proteomics analysis; assay type: binding, C57BL/6J mice
T1 construct: Take approximately 50 mg of liver tissue from C57BL/6J mice and add 1 mL of RIPA lysis buffer; from tissue; host or cells: mouse liver (C57BL/6J) lysate
T1 sequence (Q8VCH7 1-341): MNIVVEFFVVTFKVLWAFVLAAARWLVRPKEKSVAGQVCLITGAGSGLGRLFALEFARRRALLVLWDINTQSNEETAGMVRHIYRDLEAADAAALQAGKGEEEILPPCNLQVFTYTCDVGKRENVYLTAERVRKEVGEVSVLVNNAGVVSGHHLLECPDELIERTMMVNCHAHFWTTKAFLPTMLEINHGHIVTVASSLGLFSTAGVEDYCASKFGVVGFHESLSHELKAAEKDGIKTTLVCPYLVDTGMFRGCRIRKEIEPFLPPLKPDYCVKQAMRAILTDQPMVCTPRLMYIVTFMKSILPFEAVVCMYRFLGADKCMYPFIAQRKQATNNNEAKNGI
Procedure: • 1. Preparation of Liver Protein: Take approximately 50 mg of liver tissue from C57BL/6J mice and add 1 mL of RIPA lysis buffer. Lyse the proteins on ice, then centrifuge at 12,000 rpm for 30 minutes at 4° C. Collect the supernatant, measure the protein concentration using BCA method, and dilute to 1 mg/mL with PBS. • 2. Sample Preparation: Prepare new 1.5 mL EP tubes and divide them into control group, drug group, and competitive inhibition group. Add 100 μL of PBS solution containing 40 μM Biotin to the control group, 100 μL of PBS solution containing 40 μM ACS-biotin (prepared in Example 1) to the drug group, and 100 μL of PBS solution containing 40 μM ACS-biotin and 400 μM ACS to the competitive inhibition group. Then, add 100 μL of liver protein lysate (1 mg/mL) to each tube and incubate on a shaking incubator at 4° C. for 2 hours. • 3. Washing Streptavidin Beads: Add 100 μL of streptavidin beads to new 1.5 mL EP tubes and centrifuge at 2,700 rpm for 1 minute. Discard the supernatant and wash the beads with 100 μL of PBS three times. • 4. Binding and Washing: Add the solutions from step 2 to the washed streptavidin beads. Incubate on a shaking incubator at 4° C. for 2 hours, then centrifuge at 2,700 rpm for 1 minute. Discard the supernatant and wash the beads with 100 μL of PBS three times. • 5. Protein Elution: Add 50 μL of PBS to the beads, mix well, and then add 5×SDS-PAGE sample buffer. Boil for 5 minutes and centrifuge at 13,000 rpm for 5 minutes. Store the supernatant at −20° C. for SDS-PAGE gel electrophoresis. • 6. Protein Detection: Stain with Coomassie Brilliant Blue and cut the gel for proteomics analysis.

FGF21 [6] = experiment: FGF21 gene expression in the liver of MCD mice (qPCR); assay type: in vivo, C57BL/6J mice; settings: oral 4 weeks, Antcin C 20 and 40 mg/kg, AK-GLU 26.6 mg/kg, compared to DEA 20 mg/kg, FIG. 6
Procedure: Four-week-old male C57BL/6J mice were purchased from the Experimental Animal Center, Peking University Health Science Center. The mice were randomly divided into groups, with 10 mice per group. Methionine choline-deficient diet (MCD) was used to induce non-alcoholic steatohepatitis (NASH), forming the MCD model mice. The model mice were treated with an oral administration of drugs for 4 weeks. After the final treatment, the mice were fasted overnight, and then sacrificed. Serum and liver tissues were stored at −80° C., which could be compared with untreated MCD mice (“MCD”) and normal mice (“Nor” or “Normal”). The dosing amounts for each group were as follows: low-dose Antcin C (“AC-L”): 20 mg/kg; high-dose Antcin C (“AC-H”): 40 mg/kg; DEA: 20 mg/kg; AK-GLU: 26.6 mg/kg.
Total RNA Extraction: Liver tissue samples from the mice (10-20 mg) were cut into pieces and added to 1 ml of Tranzol. The mixture was placed on ice and homogenized, then transferred to an RNase-free and DNase-free EP tube. To each tube, 0.2 ml of chloroform was added, and the mixture was vigorously shaken for 15 seconds. After incubation at low temperature for 3 minutes, the mixture was centrifuged at 12000 rpm for 15 minutes at 4° C. The aqueous upper phase was transferred to a new EP tube, and an equal volume of isopropanol was added. […] RNA concentration was measured using a spectrophotometer with an A260/280 ratio. […]

Compound	serum ALT levels [1]	steatosis and ballooning in the liver [2]	FGF21 protein expression levels in liver (FGF21 [3])	serum FGF21 protein levels (FGF21 [4])	effect in preventing and treating non-alcoholic steatohepatitis [5]	log2 (ACS-biotin/ACS-biotin+ACS) for RDH10 protein (RDH10; 40 μM ACS-biotin vs 40 μM ACS-biotin + 400 μM ACS, FIG. 14C)	log2 (ACS-biotin/Biotin) for RDH10 (RDH10; 40 μM ACS-biotin vs 40 μM Biotin, mouse liver protein lysate, FIG. 14B)	gene expression levels of FGF21 in vivo (FGF21 [6])
C=C(CC[C@@H](C)[C@H]1CC[C@H]2C3=C(C(=O)C[C@]12C)[C@@]1(C)CC[C@@H](O)[C@](C)(O)[C@@H]1C[C@@H]3O)C(C)C(=O)O (stereo partly shown) [Antcin K]	significantly reduced	significantly reduced	significantly upregulated	significantly upregulated	–	–	–	–
C=C(CC[C@@H](C(=O)O)[C@H]1CC[C@@]2(C)C3=CC[C@H]4C(C)(C)[C@@H](O)CC[C@]4(C)C3=CC[C@]12C)C(C)C [DEA]	–	–	–	–	relatively weak	–	–	–
25S-Antcin C—CO—NH-PEG2-biotin [ACS-biotin]	–	–	–	–	–	> 0	> 6	–
C=C(CC[C@@H](C)[C@H]1CC[C@H]2C3=C(C(=O)C[C@]12C)[C@@]1(C)CC[C@@H](O)[C@](C)(O)[C@@H]1C[C@@H]3O[C@@H]1OC(CO)[C@@H](O)[C@H](O)C1O)C(C)C(=O)O (stereo partly shown) [AK-GLU, Antcin K-7-O-glucoside]	significantly reduced	significantly reduced	–	significantly upregulated	–	–	–	significantly activated
C=C(CC[C@@H](C)[C@H]1CC[C@H]2C3=C(C(=O)C[C@]12C)[C@@]1(C)CCC(=O)[C@@H](C)[C@@H]1C[C@@H]3O)C(C)C(=O)O (stereo partly shown) [Antcin C]	significantly reduced	significantly reduced	significantly upregulated	significantly upregulated	–	–	–	significantly activated

— patent publication US20250195542A1, “METABOLIC DISEASE THERAPEUTIC AGENT OR PREVENTIVE AGENT” (Peking University, priority 2022, published 2025)
